Results as given in article PMC8310277 (Viruses, 2021).
Where a SMILES comes first, the peptide text is derived from it. Bridges are numbered along the chain shown (N, C = ends). Where no end group is shown, it is not given here.

Experiments:
[1] = system: pseudotyped viruses expressing SARS-CoV-2 spike proteins (Wuhan-Hu-1)
HEK 293T-hACE2 cells = assay: Cytotoxicity assay (MTS); conditions: 1-50 μg/mL, 24 h; hACE2-expressing HEK293T cells; O.D. 490 nm; 4-6 samples
[2] = system: pseudotyped SARS-CoV-2 viruses in lung epithelial A549 cells; assay type: cell-based; conditions: 25 μg/mL
[3] = system: pseudotyped SARS-CoV-2 viruses in intestinal epithelial Caco-2 cells; conditions: 25 μg/mL

Molecule | cytotoxicity (cell viability, MTS, in words) (HEK 293T-hACE2 cells) | anti-SARS-CoV-2 activity (in words) [1] | further results
CC[C@H](C)[C@@H]1NC(=O)[C@H](CCC(=O)O)NC(=O)[C@@H]2CSSC[C@@H]3NC(=O)[C@H](Cc4ccc(O)cc4)NC(=O)[C@@H](NC(=O)[C@@H](NC(=O)[C@H](C)N)[C@@H](C)O)CSSC[C@@H](C(=O)N[C@@H](CCCNC(=N)N)C(=O)O)NC(=O)[C@H](CSSC[C@H](NC(=O)[C@H](CCCNC(=N)N)NC(=O)CNC(=O)[C@H]([C@@H](C)O)NC(=O)[C@H](CCCNC(=N)N)NC3=O)C(=O)N[C@@H](C)C(=O)N[C@@H]([C@@H](C)O)C(=O)N[C@@H](CCCNC(=N)N)C(=O)N[C@@H](CCC(=O)O)C(=O)N[C@@H](CO)C(=O)N[C@@H](CC(C)C)C(=O)N[C@@H](CO)C(=O)NCC(=O)N[C@@H](C(C)C)C(=O)N2)NC(=O)[C@H](CC(C)C)NC(=O)[C@H](CCCNC(=N)N)NC(=O)[C@H](Cc2ccc(O)cc2)NC(=O)[C@H](CC(C)C)NC(=O)[C@H](CCCNC(=N)N)NC(=O)CNC(=O)[C@H](CO)NC1=O [HD5] (H-ATCYCRTGRCATRESLSGVCEISGRLYRLCCR-OH; disulfide 3-31, 5-20, 10-30 (inferred); N-terminus and C-terminus assumed) | not cytotoxic |  | post-entry effect on infection (in words) [1]: None of the tested defensins affected infection after viral entry; protection by pre-treatment of cells (in words) [1]: partially blocked viral infection; suppression of SARS-CoV-2 infection [1]: 60%; inhibition of the earlier Wuhan strain ([1]; pseudotyped viruses expressing spike proteins (Wuhan-Hu-1, 48 h, 50 μg/mL)): 96%; anti-SARS-CoV-2 activity in A549 cells (in words) [2]: exhibited anti-SARS-CoV-2 activity; anti-SARS-CoV-2 activity in Caco-2 cells (in words) [3]: exhibited anti-SARS-CoV-2 activity
HBD5 (GLDFSQPFPSGEFAVCESCKLGRGKCRKECLENEKPDGNCRLNFLCCRQRI; ends and bridges not checked; cysteine pairing not given here; UniProt Q8NG35 28-78, looked up) |  | did not effectively inhibit viral infection | 
HBD6 (FFDEKCNKLKGTCKNNCGKNEELIALCQKSLKCCRTIQPCGSIID; ends and bridges not checked; cysteine pairing not given here; UniProt Q8N104 21-65, looked up) |  | did not effectively inhibit viral infection | 
HD6 | not cytotoxic | only blocked SARS-CoV-2 infection at the highest concentration tested | 
HNP4 (VCSCRLVFCRRTELRVGNCLIGGVSFTYCCTRV; ends and bridges not checked; cysteine pairing not given here; UniProt P12838 64-96, looked up) |  | substantially less potent | 
pro-HD5 (protein, UniProt Q01523 20-94, looked up, pro-form) pro-form: ESLQERADEATTQKQSGEDNQDLAISFAGNGLSALRTSGSQARATCYCRTGRCATRESLSGVCEISGRLYRLCCR |  | no anti-SARS-CoV-2 activity | 
